Reference: patent publication EP0657455A1, “Epi-epibatidine derivatives, a process and intermediates for preparing them and epi-epibatidine and medicaments containing the epi-epibatidine derivatives and/or epi-epibatidine and the use of them” (priority 1993, dated 1995)
Read-outs that look alike come from different tables or passages of the source.

Assays:
NMRI male mice = test: Hot plate test in mice; assay type: in vivo; conditions: sc
Description: Hot plate test in mice Method
A modification of method of Eddy et al. (1953) Eddy, N. B., Leimback D.: Synthetic analgesics II. Dithienylbutenyl and dithienylbutylamines. J. Pharmacol. Exp. Ther. 107 /1953/, 385 to 393 was used. NMRI male mice (20 to 25 g body weight) were dropped on a hot plate (56.0 ± 0.5°C) and the latency time elapsed until licking the forepaws was measured. The compounds were administered subcutaneously and 15, 30, 45 and 60 minutes later the reaction time was measured again. Animals were regarded as positive if they produced at least twice 2.5-fold reaction time extension as related to their control values.

mice [1] = conditions: mouse, in vivo, sc, 5 mg/kg
mice [2] = test: Acetic acid induced writhing test in mice; assay type: in vivo
Description: Acetic acid induced writhing test in mice Method
Groups of 12 mice weighing 20 to 25 g were treated with 0.75% (v/v) acetic acid in a volume of 20 ml/kg administered intraperitoneally according to the method of Koster, R., Anderson, M., de Beer, E. J.: Acetic acid for analgesic screening, Fed. Proc. 18 [1959], 412. Between 5 and 10 minutes after the administration of acetic acid the total number of the typical "writhing" reactions was counted and expressed as percent inhibition compared to the concurrent controls. The test compounds were applied subcutaneously partly with a pretreatment period of 30 min. and partly without such. Statistical evaluation was performed by Student's t test and ID₅₀ values were determined by plotting the log-dose versus percentage response as compared to vehicle-treated animals. 10 mg/kg s.c. 17-(allyl)-4,5α-(epoxy)-3,14-di-(hydroxy)-morphinan-6-one {Naloxone} was administered 15 minutes before drug treatment.

[3] = Mus musculus, hot plate 56.0 ± 0.5°C, subcutaneous, reaction time at 15, 30, 45 and 60 minutes, positive = at least twice 2.5-fold reaction time extension, read-out: ED50

Clc1ccc([C@H]2C[C@H]3CC[C@@H]2N3)cn1 (racemic) [Example 6, Epi-epibatidine]
ED50 (NMRI male mice; mouse, in vivo): 0.7 mg/kg s.c.
analgesic potency, times stronger than that of codeine (NMRI male mice; mouse, in vivo): 13 times
analgesic potency, times stronger than that of morphine (NMRI male mice; mouse, in vivo): 4 times
lethality in mice (mice [1]): does not destroy mice
ID50 Pretreatment with 10 mg/kg naloxone s.c. (mice [2]; mouse, in vivo): 3.2 mg/kg s.c.
ID50 Without pretreatment (mice [2]; mouse, in vivo): 2.6 mg/kg s.c.
antagonism of the antinociception by naloxone (mice [2]; mouse, in vivo): inactive

Fc1ccc([C@H]2C[C@H]3CC[C@@H]2N3)cc1 (racemic) [Example 12, (±)-endo-2β-[1'-(Fluoro)-phen-4'-yl]-7α-azabicyclo[2.2.1]heptane]
ED50 (NMRI male mice; [3]): 2.1 mg/kg

Clc1ccc([C@H]2C[C@H]3CC[C@@H]2N3)cc1 (racemic) [Example 19, (±)-endo-2β-[1'-(Chloro)-phen-4'-yl]-7α-azabicyclo[2.2.1]heptane]
ED50 (NMRI male mice; [3]): 6.3 mg/kg

COc1ccc([C@H]2C[C@H]3CC[C@@H]2N3)cn1 (racemic) [Example 26, (±)-endo-2β-[6'-(Methoxy)-pyrid-3'-yl]-7α-azabicyclo[2.2.1]heptane]
ED50 (NMRI male mice; [3]): 3.1 mg/kg

c1cncc([C@H]2C[C@H]3CC[C@@H]2N3)c1 (racemic) [Example 33, (±)-endo-2β-[Pyrid-3'-yl]-7α-azabicyclo[2.2.1]heptane]
ED50 (NMRI male mice; [3]): ~10 mg/kg

Clc1ccc([C@H]2C[C@H]3CC[C@@H]2N3)c(Cl)c1 (racemic) [Example 42, (±)-endo-2β-[1',3'-Di-(chloro)-phen-4'-yl]-7α-azabicyclo[2.2.1]heptane]
ED50 (NMRI male mice; [3]): 1.8 mg/kg

COc1ccc([C@H]2C[C@H]3CC[C@@H]2N3)c(OC)c1 (racemic) [Example 48, (±)-endo-2β-[1',3'-Di-(methoxy)-phen-4'-yl]-7α-azabicyclo[2.2.1]heptane]
ED50 (NMRI male mice; [3]): 2.9 mg/kg

CCOc1ccc([C@H]2C[C@H]3CC[C@@H]2N3)cn1 (racemic) [Example 49, (±)-2β-[6'-(Ethoxy)-pyrid-3'-yl]-7α-azabicyclo[2.2.1]heptane]
ED50 (NMRI male mice; [3]): 3.5 mg/kg

CN1CC[C@]23c4c5ccc(O)c4O[C@H]2[C@@H](O)C=C[C@H]3[C@H]1C5.Cl [Reference substance A, Morphine-HCl]
ID50 Pretreatment with 10 mg/kg naloxone s.c. (mice [2]; mouse, in vivo): 46.8 mg/kg s.c.
ID50 Without pretreatment (mice [2]; mouse, in vivo): 0.6 mg/kg s.c.
increase of ID50 value in antinociception after naloxone pretreatment (mice [2]; mouse, in vivo): about 80 fold

COc1ccc2c3c1O[C@H]1[C@@H](O)C=C[C@H]4[C@@H](C2)N(C)CC[C@@]341.Cl [Reference substance B, Codeine-HCl]
ED50 (NMRI male mice; [3]): 9.4 mg/kg
ID50 Pretreatment with 10 mg/kg naloxone s.c. (mice [2]; 0.75% (v/v) acetic acid i.p., naloxone 10 mg/kg s.c. 15 minutes before drug treatment): 45.4 mg/kg s.c.
ED50 (mice [2]; Mus musculus, sc, 0.75% (v/v) acetic acid i.p., writhing counted between 5 and 10 minutes, no naloxone, read-out: ID50 Without pretreatment): 9.9 mg/kg
increase of ID50 value in antinociception after naloxone pretreatment (mice [2]; naloxone 10 mg/kg s.c. for 15 minutes): ~5 fold
